# Reference: patent US20250206732A1, “COMPOUNDS AND METHODS FOR THE TARGETED DEGRADATION OF KRAS” (Arvinas Operations, Inc., priority 2022, published 2025)
# Legend:
# AsPC-1 HiBiT-KRASG12D = target: T1, AsPC-1 HiBiT-KRASG12D (Homo sapiens, UniProt P01116, G12D); test: HiBiT degradation assay (G12D), AsPC-1 HiBiT-KRASG12D cells; assay type: cell-based; settings: 24 hours treatment; for Dmax: ASPC1, AsPC-1 HiBiT-KRASG12D cells, maximum degradation observed; for DC50: AsPC-1 HiBiT-KRASG12D cells, HiBiT luminescence
# T1 construct: insert the HiBiT tag onto the N-terminus of one or more of the endogenous KRAS alleles; endogenous in cells; host or cells: AsPC-1 (ATCC CRL-1682), CRISPR-Cas9 knock-in clone, one tagged allele
# Procedure, shortened: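 Steps: treat HiBiT-KRASG12D AsPC-1 cells with compound for 24 hours; add alamar blue to 1× and incubate 4 hours to assess viability; wash with PBS; add HiBiT lytic detection reagent, incubate 45 minutes at room temperature; read luminescence. Viability fluorescence is normalized to DMSO wells.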
# SW1573 HiBiT-KRASG12C = target: T2, SW1573 HiBiT-KRASG12C (Homo sapiens, UniProt P01116, G12C); test: HiBiT degradation assay (G12C), SW1573 HiBiT-KRASG12C cells; assay type: cell-based; settings: 24 hours treatment; for DC50: HiBiT luminescence; for Dmax: maximum degradation observed;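 for DC50: Letter grades: C is 1000 to 3000 nM and D is above 3000 nM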
# T2 construct: expressed in transfected cells
# Procedure, shortened: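 SW1573 cells expressing N-terminal HiBiT-KRASG12C (clone E6) treated 24 h at 37 °C with 10 μM to 508 pM compound in 0.5% DMSO, triplicate. HiBiT lytic luminescence normalized to DMSO, 4-parameter fit gives DC50 and Dmax; points with ≥50% alamar blue viability loss excluded.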
# T1 sequence (P01116 1-188 isoform P01116-2 G12D): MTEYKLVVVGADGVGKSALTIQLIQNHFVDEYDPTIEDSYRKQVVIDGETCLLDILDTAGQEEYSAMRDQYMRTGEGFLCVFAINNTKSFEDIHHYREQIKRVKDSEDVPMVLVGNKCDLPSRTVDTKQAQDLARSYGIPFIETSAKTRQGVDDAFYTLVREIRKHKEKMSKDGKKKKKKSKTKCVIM
# T2 sequence (P01116 1-188 isoform P01116-2 G12C): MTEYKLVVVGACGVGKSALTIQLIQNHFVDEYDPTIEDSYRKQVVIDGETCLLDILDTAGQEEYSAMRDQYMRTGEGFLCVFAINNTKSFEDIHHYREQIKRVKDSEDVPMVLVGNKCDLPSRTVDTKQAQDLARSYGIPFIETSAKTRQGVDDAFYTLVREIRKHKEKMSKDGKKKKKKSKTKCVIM
SMILES,Dmax (AsPC-1 HiBiT-KRASG12D) [%],DC50 (AsPC-1 HiBiT-KRASG12D) [nM],DC50 (SW1573 HiBiT-KRASG12C) [nM],Dmax (SW1573 HiBiT-KRASG12C) [%]
"Cc1ncsc1-c1ccc([C@H](C)NC(=O)[C@@H]2C[C@@H](O)CN2C(=O)[C@@H](c2cc(OCC3CCN(CCOc4nc(N5CC6CCC(C5)N6)c5cnc(-c6cc(O)cc7cccc(Cl)c67)c(F)c5n4)CC3)no2)C(C)C)cc1 [Compound 40, (2S,4R)-1-[(2R)-2-(3-{[1-(2-{[7-(8-chloro-3-hydroxynaphthalen-1-yl)-4-{3,8-diazabicyclo[3.2.1]octan-3-yl}-8-fluoropyrido[4,3-d]pyrimidin-2-yl]oxy}ethyl)piperidin-4-yl]methoxy}-1,2-oxazol-5-yl)-3-methylbutanoyl]-4-hydroxy-N-[(1S)-1-[4-(4-methyl-1,3-thiazol-5-yl)phenyl]ethyl]pyrrolidine-2-carboxamide]",80 to 100,< 600,> 3000,–
"Cc1ncsc1-c1ccc([C@H](C)NC(=O)[C@@H]2C[C@@H](O)CN2C(=O)[C@@H](c2cc(OCC3CCN(CCOc4nc(N5CC6CCC(C5)N6)c5cnc(-c6cc(O)cc(Cl)c6C(C)C)c(F)c5n4)CC3)no2)C(C)C)cc1 [Compound 41, (2S,4R)-1-[(2R)-2-[3-({1-[2-({7-[3-chloro-5-hydroxy-2-(propan-2-yl)phenyl]-4-{3,8-diazabicyclo[3.2.1]octan-3-yl}-8-fluoropyrido[4,3-d]pyrimidin-2-yl}oxy)ethyl]piperidin-4-yl}methoxy)-1,2-oxazol-5-yl]-3-methylbutanoyl]-4-hydroxy-N-[(1S)-1-[4-(4-methyl-1,3-thiazol-5-yl)phenyl]ethyl]pyrrolidine-2-carboxamide]",20 to 60,< 600,> 3000,20 to 60
"CCc1cccc2cc(O)cc(-c3ncc4c(N5CCCCCC5)nc(OC[C@@]56CCCN5[C@H](COC(=O)N5CCN(c7cc([C@H](C(=O)N8C[C@H](O)C[C@H]8C(=O)N[C@@H](C)c8ccc(-c9scnc9C)cc8)C(C)C)on7)CC5)CC6)nc4c3F)c12 [Compound 42, [(3S,7aS)-7a-({[4-(azepan-1-yl)-7-(8-ethyl-3-hydroxynaphthalen-1-yl)-8-fluoropyrido[4,3-d]pyrimidin-2-yl]oxy}methyl)-hexahydro-1H-pyrrolizin-3-yl]methyl 4-{5-[(2R)-1-[(2S,4R)-4-hydroxy-2-{[(1S)-1-[4-(4-methyl-1,3-thiazol-5-yl)phenyl]ethyl]carbamoyl}pyrrolidin-1-yl]-3-methyl-1-oxobutan-2-yl]-1,2-oxazol-3-yl}piperazine-1-carboxylate]",80 to 100,< 600,≤ 600,80 to 100
"Cc1ncsc1-c1ccc([C@H](C)NC(=O)[C@@H]2C[C@@H](O)CN2C(=O)[C@@H](c2cc(OCC3CCN(CCOc4nc(N5CC6CCC(C5)N6)c5cnc(-c6cc(O)cc(Cl)c6C6CC6)c(F)c5n4)CC3)no2)C(C)C)cc1 [Compound 43, (2S,4R)-1-[(2R)-2-(3-{[1-(2-{[7-(3-chloro-2-cyclopropyl-5-hydroxyphenyl)-4-{3,8-diazabicyclo[3.2.1]octan-3-yl}-8-fluoropyrido[4,3-d]pyrimidin-2-yl]oxy}ethyl)piperidin-4-yl]methoxy}-1,2-oxazol-5-yl)-3-methylbutanoyl]-4-hydroxy-N-[(1S)-1-[4-(4-methyl-1,3-thiazol-5-yl)phenyl]ethyl]pyrrolidine-2-carboxamide]",80 to 100,< 600,> 3000,20 to 60
"CCc1cccc2cc(O)cc(-c3ncc4c(N5CCCCCC5)nc(OC[C@@]56CCCN5[C@H](COC(=O)N5CCN(c7cc([C@@H](C(=O)N8C[C@H](O)C[C@H]8C(=O)N[C@@H](C)c8ccc(-c9scnc9C)cc8)C(C)C)on7)CC5)CC6)nc4c3F)c12 [Compound 44, [(3S,7aS)-7a-({[4-(azepan-1-yl)-7-(8-ethyl-3-hydroxynaphthalen-1-yl)-8-fluoropyrido[4,3-d]pyrimidin-2-yl]oxy}methyl)-hexahydro-1H-pyrrolizin-3-yl]methyl 4-{5-[(2S)-1-[(2S,4R)-4-hydroxy-2-{[(1S)-1-[4-(4-methyl-1,3-thiazol-5-yl)phenyl]ethyl]carbamoyl}pyrrolidin-1-yl]-3-methyl-1-oxobutan-2-yl]-1,2-oxazol-3-yl}piperazine-1-carboxylate]",< 20,< 600,> 3000,–
